Laboratory results: patent US11957758B2, “Pharmaceutical composition of docetaxel conjugate and preparation method” (SHENZHEN SALUBRIS PHARMACEUTICALS CO. LTD, priority 2017, dated 2024)

What was measured:
4T1 breast cancer [1] = test: 4T1 breast cancer lung metastasis model of mice, experiment (1); assay type: in vivo, BALB/c mice; details: for breast tumor weight compared to the blank control group / number of metastatic nodules on the lung surface compared to the blank control group: tail vein once a week for 4 weeks, D28, IA1 10 mg/kg, DTX 5.7 mg/kg, MDC 10 mg/kg (equimolar); for breast tumor weight compared to the blank control group: FIG. 3A; for number of metastatic nodules on the lung surface compared to the blank control group: FIG. 3B
Procedure: • (1) Cell culture and tumor inoculation: 4T1 cells were cultured in 1640 medium (Gibco) containing 10% fetal bovine serum (Hyclone Corp, USA), 1% glutamine and 1% penicillin-streptomycin. The 4T1 cells in logarithmic growth phase were collected and the cell concentration was adjusted to 1.5×10^6/mL. 0.1 mL 4T1 cells (1.5×10^5/per mouse) were inoculated in the fourth mammary fat pad of female BALB/c mice.
Grouping and administration: BALB/c mice were inoculated with 4T1 breast cancer cells in the mammary fat pad. The day of inoculation was DO. Mice were administered in groups on the fourth day after inoculation. The experiment consisted of four groups: • (1) solvent control group (blank control group), • (2) IA1 10 mg/kg group, • (3) DTX (Docetaxel) 5.7 mg/kg group, • (4) MDC 10 mg/kg group. • (3) and (4) are positive control groups.
(§1) Each group had 10 animals. Mice were administered by tail vein injection once a week for 4 weeks. Animal weight and tumor volume were monitored during the administration. Animals were weighed every 2-3 days, and the long diameter and short diameter of breast tumors were measured with a vernier caliper. The tumor size was calculated by the formula: (½)×long diameter×(short diameter)^2. The experiment was terminated on the 28th day (D28). The mice were sacrificed by cervical dislocation after eyeball blood collection. The breast tumor and lung were weighed. The number of metastatic nodules on the lung surface was counted. The results of tumor weight are shown in FIG. 3A, and the results of the number of metastatic nodules on the lung surface are shown in FIG. 3B.

4T1 breast cancer [2] = test: 4T1 breast cancer lung metastasis model of mice, experiment (3); assay type: in vivo, BALB/c mice; details: for increase in tumor weight compared with the blank control group / increase in tumor volume compared with the blank control group: tail vein once a week for 4 weeks, IA1 5 and 10 mg/kg, DTX 2.85 mg/kg, DTX 2.85+MDA-1 2.26 mg/kg, DTX 2.85+MDA-1-linker 2.21 mg/kg; for increase in tumor weight compared with the blank control group: D28, FIG. 5B; for increase in tumor volume compared with the blank control group: FIG. 5A
Procedure: […]. Grouping and administration: BALB/c mice were inoculated with 4T1 breast cancer cells in the mammary fat pad. The day of inoculation was DO, and mice were administered in groups on the fourth day after inoculation. The experiment consisted of six groups: • (1) solvent control group (blank control group), • (2) IA1 5 mg/kg group, • (3) IA1 10 mg/kg group, • (4) DTX (Docetaxel) 2.85 mg/kg group, • (5) DTX (2.85 mg/kg)+MDA-1 (2.26 mg/kg) group, • (6) DTX (2.85 mg/kg)+MDA-1-linker (2.21 mg/kg) group. • (4), (5) and (6) are positive control groups.
as §1, with “counted.” for “counted. The results of tumor weight are shown in FIG. 3A, and the results of the number of metastatic nodules on the lung surface are shown in FIG. 3B.”

4T1 breast cancer [3] = test: 4T1 breast cancer lung metastasis model of mice, experiment (2); assay type: in vivo, BALB/c mice; details: for increase in breast tumor weight compared with the blank control group / increase in the number of metastatic nodules on the lung surface compared with the blank control group: tail vein once a week for 4 weeks, D28, DTX 5.7 mg/kg, DTX 5.7+MDA-1 4.53 mg/kg, DTX 5.7+MDA-1-linker 4.43 mg/kg; for increase in breast tumor weight compared with the blank control group: FIG. 4A
Procedure: 0.1 mL 4T1 cells (1.5×10^5/per mouse) were inoculated in the fourth mammary fat pad of female BALB/c mice.
Grouping and administration: BALB/c mice were inoculated with 4T1 breast cancer cells in the mammary fat pad. The day of inoculation was DO, and mice were administered in groups on the fourth day after inoculation. The experiment consisted of five groups: • (1) solvent control group (blank control group), • (2) IA1 10 mg/kg group, • (3) DTX (Docetaxel) 5.7 mg/kg group, • (4) DTX (5.7 mg/kg)+MDA-1 (4.53 mg/kg) group, • (5) DTX (5.7 mg/kg)+MDA-1-linker (4.43 mg/kg) group. • (3), (4) and (5) are positive control groups.
as §1, with “4A,” for “3A,”, “4B.” for “3B.”

[4] = Stability of IA1 in different pH environments (HPLC main peak purity); assay type: physicochemical
Procedure: The method for measuring the impurity content in the following examples is as follows, with reference to 0512 liquid chromatography method in the “Chinese Pharmacopoeia” 2015 Edition Volume IV. 20 μl of the system suitability solution, the reference solution, and the test solution are injected into the liquid chromatograph respectively, and the chromatograms are recorded. Calculation formula: each
AT is the peak area of each impurity in the test solution; AS is the average peak area of the main peak in the reference solution; CT is the concentration (mg/ml) of the test solution; Cs is docetaxel conjugate concentration (mg/ml) in the reference solution; F is the correction factor for each impurity.
HPLC conditions: An octadecyl bonded silica gel column (C18, 4.6×150 mm, 3.5 μm); gradient elution, phase A: acetonitrile: 0.1% phosphoric acid=45:55, phase B: acetonitrile; detection wavelength: 225 nm; flow rate: 1.0 ml/min; column temperature: 40° C.

| Structure (SMILES) | inhibitory effects on tumor and cancer metastasis (4T1 breast cancer [1]; same experiment, compared with IA1) | breast tumor weight compared to the blank control group (4T1 breast cancer [1]) | number of metastatic nodules on the lung surface compared to the blank control group (4T1 breast cancer [1]) | difference in the inhibitory effects on tumor volume and weight versus positive control groups (4T1 breast cancer [2]; IA1 versus docetaxel, docetaxel+MDA-1, docetaxel+MDA-1-linker, FIGS. 5A and 5B) | increase in tumor weight compared with the blank control group (4T1 breast cancer [2]) | increase in tumor volume compared with the blank control group (4T1 breast cancer [2]) | increase of inhibitory effect on lung surface metastatic nodules compared with docetaxel+MDA-1 (4T1 breast cancer [3]; IA1 10 mg/kg versus DTX 5.7 mg/kg+MDA-1 4.53 mg/kg) [%] | increase of inhibitory effect on lung surface metastatic nodules compared with docetaxel+MDA-1+linker (4T1 breast cancer [3]; IA1 10 mg/kg versus DTX 5.7 mg/kg+MDA-1-linker 4.43 mg/kg) [%] | difference in the inhibitory effects on lung surface nodules versus positive control groups (4T1 breast cancer [3]; IA1 10 mg/kg, FIG. 4B) | increase in breast tumor weight compared with the blank control group (4T1 breast cancer [3]; IA1 10 mg/kg) | increase in the number of metastatic nodules on the lung surface compared with the blank control group (4T1 breast cancer [3]; IA1 10 mg/kg, FIG. 4B) | Decrease in purity of main peak within 14 h (%) ([4]; Acetonitrile/pH 3.0 buffer) | Decrease in purity of main peak within 14 h (%) ([4]; Acetonitrile/pH 4.0 buffer) | Decrease in purity of main peak within 14 h (%) ([4]; Acetonitrile/pH 5.0 buffer) | Decrease in purity of main peak within 14 h (%) ([4]; Acetonitrile/pH 6.0 buffer) | Decrease in purity of main peak within 14 h (%) ([4]; Acetonitrile/pH 7.0 buffer) | Decrease in purity of main peak within 14 h (%) ([4]; Acetonitrile/pH 8.0 buffer) |
| --- | --- | --- | --- | --- | --- | --- | --- | --- | --- | --- | --- | --- | --- | --- | --- | --- | --- |
| CC(=O)O[C@@]12CO[C@@H]1C[C@H](O)[C@@]1(C)C(=O)[C@H](O)C3=C(C)[C@@H](OC(=O)[C@H](OC(=O)CCC(=O)NCCCC[C@H](NC(=O)CC[C@@H](NC(=O)[C@H](C)NC(=O)/C=C/c4ccc(F)cc4Cl)C(N)=O)C(=O)O)[C@@H](NC(=O)OC(C)(C)C)c4ccccc4)C[C@@](O)([C@@H](OC(=O)c4ccccc4)[C@H]21)C3(C)C [IA1] | the most excellent | significantly inhibited | significantly inhibited | significant difference | significantly inhibited | significantly inhibited | 27.9 | 18.6 | significant difference | significantly inhibited | significantly inhibited | 0.11 | 0.19 | 0.19 | 0.51 | 7.38 | 22.55 |
| CC(=O)O[C@@]12CO[C@@H]1C[C@H](O)[C@@]1(C)C(=O)[C@H](O)C3=C(C)[C@@H](OC(=O)[C@H](O)[C@@H](NC(=O)OC(C)(C)C)c4ccccc4)C[C@@](O)([C@@H](OC(=O)c4ccccc4)[C@H]21)C3(C)C [docetaxel] |  | significantly inhibited | significantly inhibited |  | significantly inhibited | significantly inhibited |  |  |  | significantly inhibited | significantly inhibited |  |  |  |  |  |  |
